Test results reported in BindingDB's records for doi:10.1021/acs.jmedchem.9b01033 (Taipei Medical University, 2020).

Assay: Inhibition of CFD in 10% human serum assessed as reduction in alternate complement pathway-mediated hemolysis incubated for 1 hr

C[C@H](NC(=O)[C@@H]1C[C@H]2C[C@H]2N1C(=O)Cn1nc(C(N)=O)c2cccnc21)c1cccc(Cl)c1F
IC50: 6 nM
